Reference: paper PMC3759991 (Clinical cancer research : an official journal of the …, 2012)
Where no end group is shown, it is not given here.

How the values were obtained:
[1] = target: HLA-A*0301 (Homo sapiens, UniProt P04439); assay: competitive MHC allele binding assay, A*0301
[2] = target: HLA-A*1101 (Homo sapiens, UniProt P04439, A114D/D185E/E176A/F33Y/L180Q/S129P/T187R); assay: competitive MHC allele binding assay, A*1101
[3] = target: HLA-A*3001 (Homo sapiens, UniProt P04439, D140H/D185E/E176W/F33S/G80R/H175R/K168Q/R138E/R41S); assay: competitive MHC allele binding assay, A*3001
[4] = target: HLA-A*3101 (Homo sapiens, UniProt P04439, A270S/D185E/E176V/E277Q/F33T/G231S/G80R/H175R/I121M/I218V/I322F/K168Q/L300P/L318F/M331R/P217A/Q94H/R138Q/T323A/T345S/T97I/V358M); assay: competitive MHC allele binding assay, A*3101
[5] = target: HLA-A*3301 (Homo sapiens, UniProt P04439, A270S/D185E/E176V/E277Q/E87N/F33T/G231S/H175R/I121M/I218V/I322F/K168Q/K210R/L300P/L318F/M331R/P217A/Q86R/Q94H/R138Q/T323A/T345S/T97I/V358M/Y195H); assay: competitive MHC allele binding assay, A*3301
[6] = target: HLA-A*6801 (Homo sapiens, UniProt P04439, A269V/D185E/E176V/E277Q/E87N/F33Y/G231S/I121M/I166T/I218V/L180W/L300P/L318F/N151K/P208A/P217A/Q86R/R169H/T345S); assay: competitive MHC allele binding assay, A*6801

| Sequence | IC50 [1] [nM] | IC50 [2] [nM] | IC50 [3] [nM] | IC50 [4] [nM] | IC50 [5] [nM] | IC50 [6] [nM] |
| --- | --- | --- | --- | --- | --- | --- |
| KLGGGQYGK [E255K-A] | 208 | 1070 | 27800 | 31800 | > 70000 | 57100 |
| EVYEGVWKK [E225K-B WT] | 1070 | 63 | > 70000 | > 70000 | 60 | 10 |
